Values of other authors in patent US10047050B2, “3,4-di-substituted pyridine compound, methods of using and compositions comprising the same” (ARDEA BIOSCIENCES, INC., priority 2011, dated 2018).

Conditions: cited from earlier work
[1] = individuals treated with probenecid

SMILES	incidence of side effects (of all individuals treated with the drug) [%]	individuals who develop intolerance [1]	individuals who fail to achieve reduction of serum uric acid levels <6 mg/dL [1]
Oc1ncnc2[nH]ncc12 [Allopurinol, allopurinol]	20	–	–
CCCN(CCC)S(=O)(=O)c1ccc(C(=O)O)cc1 [probenecid]	–	one-third	25-50%
